Tested on: male Wister strain rats
Experiment: Antidepressant effect in rat forced swimming test
Type: in vivo
Conditions: oral
Source text: The present test can evaluate antidepressant effect of a drug. When a rat is thrown into a water bath from which the rat cannot escape to be made to swim, the rat takes on escape behavior in the beginning and then becomes immobile. Next day, when the rat is thrown into a water bath again, the immobility appears earlier than that of the first trial. The method can evaluate the antidepressant effect of a test compound by using the duration of the immobility time as an indicator of depressive behavior. A day before the test, male Wister strain rats (purchased from Charles River Laboratories Japan, body weight: 260-300 g) were made to swim in a water bath for 15 minutes. On the test day, the test compound was orally administered to the rats (10-12 rats in one group). An hour later, the rats were made to swim again for 5 minutes and each immobility time was measured. In the control group, 0.5% methylcellulose solution as the test compound was administered to the rats which were subjected to the same behavior test. The antidepressant effect was indicated by the average rate of deceasing the immobility time per that of the control group.

Row | Structure (SMILES) | antidepressant effect / immobility time (in words)
1 | CN1C(=O)CN=C(c2ccccc2)c2cc(Cl)ccc21 [diazepam, reference compound] | did not show antidepressant effect

Same assay, conditions: oral 10 mg/kg; swim 5 minutes an hour later

Row | Structure (SMILES) | average rate of deceasing the immobility time per that of the control group
2 | CN1C(=O)CN=C(c2ccccc2)c2cc(Cl)ccc21 [diazepam, reference compound] | 18.3

Tested on: BALB/c-Scn1a<+/−> mice
Experiment: Anticonvulsant effect in mouse model of Dravet syndrome with febrile seizures
Type: in vivo
Conditions: oral, at the dose for anticonvulsive effect; hyperthermia 50 minutes after dosing
Source text: This is a test for evaluating the anticonvulsant effect for febrile seizures of the test compounds in a mouse model of Dravet syndrome. In this test, BALB/c-Scn1a<+/−> mice were used (catalog number: RBRC06422; they are available from RIKEN BioResource Research Center via the National BioResource Project). The present mouse model having a mutation in a responsible gene for Dravet syndrome, Scn1A, presents with symptoms similar to febrile seizures caused by hyperthermia which is a symptom in a patient suffering from Dravet syndrome, and can be used as an animal model of spontaneous Dravet syndrome (for reference: the Japan Epilepsy Research Foundation, Annual Report 2015: 26: 69-76). To male mice model of Dravet syndrome (one group: 5-8 mice, body weight: 20-30 g) were orally administered the test compound. 50 minutes later, the mice were put in a chamber warmed with hot bath to evoke hyperthermia, and observed about the development of febrile seizures. Immediately after febrile seizure was developed, the rectal temperature was measured and used as the threshold body temperature for inducing febrile seizures.

Row | Structure (SMILES) | Difference of the threshold temperature of convulsion from that of the control group [°C]
3 | CC(C)(C(N)=O)c1nc(-c2ccc(Cl)cc2)no1 [Example 2, 2-[3-(4-chlorophenyl)-1,2,4-oxadiazol-5-yl]-2-methylpropanamide] | 0.6
4 | CC(C)(C(N)=O)c1nc(-c2ccc(Br)cc2)no1 [Example 3, 2-[3-(4-bromophenyl)-1,2,4-oxadiazol-5-yl]-2-methylpropanamide] | 0.7
5 | CC(C)(C(N)=O)c1noc(-c2ccc(Cl)cc2)n1 [Example 13, 2-[5-(4-chlorophenyl)-1,2,4-oxadiazol-3-yl]-2-methylpropanamide] | 0.6
6 | CC(C)(c1noc(-c2ccc(Cl)cc2)n1)S(N)(=O)=O [Example 20, 2-[5-(4-chlorophenyl)-1,2,4-oxadiazol-3-yl]propane-2-sulfonamide] | 0.6

Same assay, conditions: oral; dose needed to raise the threshold body temperature for inducing febrile seizures significantly compared with the control group

Row | Structure (SMILES) | Dose for anticonvulsive effect [mg/kg]
7 | CC(C)(C(N)=O)c1nc(-c2ccc(Cl)cc2)no1 [Example 2, 2-[3-(4-chlorophenyl)-1,2,4-oxadiazol-5-yl]-2-methylpropanamide] | 50
8 | CC(C)(C(N)=O)c1nc(-c2ccc(Br)cc2)no1 [Example 3, 2-[3-(4-bromophenyl)-1,2,4-oxadiazol-5-yl]-2-methylpropanamide] | 100
9 | CC(C)(C(N)=O)c1noc(-c2ccc(Cl)cc2)n1 [Example 13, 2-[5-(4-chlorophenyl)-1,2,4-oxadiazol-3-yl]-2-methylpropanamide] | 50
10 | CC(C)(c1noc(-c2ccc(Cl)cc2)n1)S(N)(=O)=O [Example 20, 2-[5-(4-chlorophenyl)-1,2,4-oxadiazol-3-yl]propane-2-sulfonamide] | 100

Tested on: GABA(A) receptors
Experiment: Evaluation of the potentiating effect on GABA(A) receptors (electrophysiology, GABA(A) receptor expressing cells)
Type: cell-based
Conditions: not given
Protocol: Using GABA(A) receptor expressing cells prepared according to Guideline for Generation of Stable Cell Lines (website of Lonza Japan; Non-patent Literature 4), the present test is done for evaluating the potentiating effect of a drug on GABA(A) receptors based on the electric current raised by GABA. The GABA(A) receptor expressing cells were used in electrophysiological study, wherein the electric current was measured when 2 μM GABA solution and then a mixture of 2 μM GABA and the test compound were added to the cells. […] In addition, the electric current generated by a mixture of 2 μM GABA solution and the test compound with 10 μM flumazenil was measured, and the inhibition rate for the electric current by adding flumazenil was calculated compared to the electric current obtained in the absence of flumazenil.

Row | Structure (SMILES) | potentiating effect on GABA(A) receptors (in words)
11 | CN1C(=O)CN=C(c2ccccc2)c2cc(Cl)ccc21 [diazepam, reference compound] | has the potentiating effect on GABA(A) receptors

Same assay, conditions: 2 μM GABA and test compound with 10 μM flumazenil

Row | Structure (SMILES) | Inhibition rate to the increased electric current by adding flumazenil [%]
12 | CC(C)(C(N)=O)c1nc(-c2ccc(Cl)cc2)no1 [Example 2, 2-[3-(4-chlorophenyl)-1,2,4-oxadiazol-5-yl]-2-methylpropanamide] | <0
13 | CC(C)(C(N)=O)c1nc(-c2ccc(Br)cc2)no1 [Example 3, 2-[3-(4-bromophenyl)-1,2,4-oxadiazol-5-yl]-2-methylpropanamide] | <0
14 | CC(C)(C(N)=O)c1noc(-c2ccc(Cl)cc2)n1 [Example 13, 2-[5-(4-chlorophenyl)-1,2,4-oxadiazol-3-yl]-2-methylpropanamide] | <0
15 | CC(C)(c1nc(-c2ccc(Cl)cc2)no1)S(N)(=O)=O [Example 18, 2-[3-(4-chlorophenyl)-1,2,4-oxadiazol-5-yl]propane-2-sulfonamide] | <0
16 | CC(C)(c1noc(-c2ccc(Cl)cc2)n1)S(N)(=O)=O [Example 20, 2-[5-(4-chlorophenyl)-1,2,4-oxadiazol-3-yl]propane-2-sulfonamide] | 55
17 | CN1C(=O)CCC1c1nc(-c2ccc(F)c(F)c2)no1 (stereo not drawn) [Example 27, 5-[3-(3,4-difluorophenyl)-1,2,4-oxadiazol-5-yl]-1-methylpyrrolidin-2-one] | <0
18 | CN1C(=O)CC(=O)N(c2ccccc2)c2cc(Cl)ccc21 [clobazam, reference compound] | 88
19 | CN1C(=O)CN=C(c2ccccc2)c2cc(Cl)ccc21 [diazepam, reference compound] | 93

Same assay, conditions: concentration giving 20% increase of the current generated by 2 μM GABA

Row | Structure (SMILES) | The potentiating effect on GABA(A) receptors EC20 [µM]
20 | CC(C)(C(N)=O)c1nc(-c2ccc(F)cc2)no1 [Example 1, 2-[3-(4-Fluorophenyl)-1,2,4-oxadiazol-5-yl]-2-methylpropanamide] | 55
21 | CC(C)(C(N)=O)c1nc(-c2ccc(Cl)cc2)no1 [Example 2, 2-[3-(4-chlorophenyl)-1,2,4-oxadiazol-5-yl]-2-methylpropanamide] | 29
22 | CC(C)(C(N)=O)c1nc(-c2ccc(Br)cc2)no1 [Example 3, 2-[3-(4-bromophenyl)-1,2,4-oxadiazol-5-yl]-2-methylpropanamide] | 29
23 | NC(=O)C1(c2nc(-c3ccc(F)cc3)no2)CC1 [Example 4, 1-[3-(4-fluorophenyl)-1,2,4-oxadiazol-5-yl]cyclopropane-1-carboxamide] | >100
24 | NC(=O)C1(c2nc(-c3ccc(Cl)cc3)no2)CC1 [Example 5, 1-[3-(4-chlorophenyl)-1,2,4-oxadiazol-5-yl]cyclopropane-1-carboxamide] | >300
25 | NC(=O)C1(c2nc(-c3ccc(Cl)cc3)no2)CC(F)C1 (stereo not drawn) [Example 6, 1-[3-(4-chlorophenyl)-1,2,4-oxadiazol-5-yl]-3-fluorocyclobutane-1-carboxamide] | 3.3
26 | NC(=O)C1(c2nc(-c3ccc(Cl)cc3)no2)CC(F)(F)C1 [Example 7, 1-[3-(4-chlorophenyl)-1,2,4-oxadiazol-5-yl]-3,3-difluorocyclobutane-1-carboxamide] | 5.4
27 | CC(C)(C(N)=O)c1noc(-c2ccc(Cl)cc2)n1 [Example 13, 2-[5-(4-chlorophenyl)-1,2,4-oxadiazol-3-yl]-2-methylpropanamide] | 71
28 | CC(C)(c1nc(-c2ccc(Cl)cc2)no1)S(N)(=O)=O [Example 18, 2-[3-(4-chlorophenyl)-1,2,4-oxadiazol-5-yl]propane-2-sulfonamide] | 37
29 | CC(C)(c1noc(-c2ccc(Cl)cc2)n1)S(N)(=O)=O [Example 20, 2-[5-(4-chlorophenyl)-1,2,4-oxadiazol-3-yl]propane-2-sulfonamide] | 20
30 | CN1C(=O)CCC1c1nc(-c2ccc(F)c(F)c2)no1 (stereo not drawn) [Example 27, 5-[3-(3,4-difluorophenyl)-1,2,4-oxadiazol-5-yl]-1-methylpyrrolidin-2-one] | 39
31 | CN1C(=O)CC(=O)N(c2ccccc2)c2cc(Cl)ccc21 [clobazam, reference compound] | 0.34
32 | CN1C(=O)CN=C(c2ccccc2)c2cc(Cl)ccc21 [diazepam, reference compound] | 0.03

Same assay, conditions: flumazenil, benzodiazepine antagonist

Row | Structure (SMILES) | inhibition of the potentiating effect on GABA(A) receptors with flumazenil (in words)
33 | CN1C(=O)CC(=O)N(c2ccccc2)c2cc(Cl)ccc21 [clobazam, reference compound] | strongly inhibited
34 | CN1C(=O)CN=C(c2ccccc2)c2cc(Cl)ccc21 [diazepam, reference compound] | strongly inhibited

Tested on: Slc: ddy male mice
Experiment: not given
Conditions: mouse, in vivo, po, 50 mg/kg, 1 h

Row | Structure (SMILES) | average of the five mice's walking time [s]
35 | CN1C(=O)CCC1c1nc(-c2ccc(F)c(F)c2)no1 (stereo not drawn) [Example 27, 5-[3-(3,4-difluorophenyl)-1,2,4-oxadiazol-5-yl]-1-methylpyrrolidin-2-one] | 180

Same assay, conditions: mouse, in vivo, po, 100 mg/kg, 1 h

Row | Structure (SMILES) | average of the five mice's walking time [s]
36 | CC(C)(C(N)=O)c1nc(-c2ccc(F)cc2)no1 [Example 1, 2-[3-(4-Fluorophenyl)-1,2,4-oxadiazol-5-yl]-2-methylpropanamide] | 180
37 | CC(C)(C(N)=O)c1nc(-c2ccc(Cl)cc2)no1 [Example 2, 2-[3-(4-chlorophenyl)-1,2,4-oxadiazol-5-yl]-2-methylpropanamide] | 180
38 | CC(C)(C(N)=O)c1nc(-c2ccc(Br)cc2)no1 [Example 3, 2-[3-(4-bromophenyl)-1,2,4-oxadiazol-5-yl]-2-methylpropanamide] | 180
39 | NC(=O)C1(c2nc(-c3ccc(F)cc3)no2)CC1 [Example 4, 1-[3-(4-fluorophenyl)-1,2,4-oxadiazol-5-yl]cyclopropane-1-carboxamide] | 180
40 | NC(=O)C1(c2nc(-c3ccc(Cl)cc3)no2)CC1 [Example 5, 1-[3-(4-chlorophenyl)-1,2,4-oxadiazol-5-yl]cyclopropane-1-carboxamide] | 180
41 | NC(=O)C1(c2nc(-c3ccc(Cl)cc3)no2)CC(F)C1 (stereo not drawn) [Example 6, 1-[3-(4-chlorophenyl)-1,2,4-oxadiazol-5-yl]-3-fluorocyclobutane-1-carboxamide] | 180
42 | NC(=O)C1(c2nc(-c3ccc(Cl)cc3)no2)CC(F)(F)C1 [Example 7, 1-[3-(4-chlorophenyl)-1,2,4-oxadiazol-5-yl]-3,3-difluorocyclobutane-1-carboxamide] | 180
43 | CC(C)(C(N)=O)c1noc(-c2ccc(Cl)cc2)n1 [Example 13, 2-[5-(4-chlorophenyl)-1,2,4-oxadiazol-3-yl]-2-methylpropanamide] | 180
44 | CC(C)(c1nc(-c2ccc(Cl)cc2)no1)S(N)(=O)=O [Example 18, 2-[3-(4-chlorophenyl)-1,2,4-oxadiazol-5-yl]propane-2-sulfonamide] | 180
45 | CC(C)(c1noc(-c2ccc(Cl)cc2)n1)S(N)(=O)=O [Example 20, 2-[5-(4-chlorophenyl)-1,2,4-oxadiazol-3-yl]propane-2-sulfonamide] | 180
